Assay results reported in US7582639B2, “N-deacetylthiocolchicine derivatives, their use and pharmaceutical formulations containing them” (priority 2004, dated 2009).
Like-named read-outs stand apart in the source and are kept apart here.

Legend:
Experiment in all cases: cells
Type in all cases: cell-based
[1] = tested on: MCF7-R (MDR+); details: after 72 hours, concentration that inhibits cell growth by 50% compared with non treated cells, read-out: IC50 (nM) ± S.E. MCF7-R (MDR+)
Procedure: (§1) The activity of the compounds of formula I was evaluated on a large number of tumour cells expressing different resistance.
(§2) Cytotoxic activity was evaluated according to the procedure described by M. C.

[2] = tested on: MCF7 (breast); details: after 72 hours, concentration that inhibits cell growth by 50% compared with non treated cells, read-out: IC50 (nM) ± S.E. MCF7 (breast)
Procedure: as §1, §2

[3] = tested on: A2780/pt (resistant to tocisplatin); details: after 72 hours, concentration that inhibits cell growth by 50% compared with non treated cells, read-out: IC50 (nM) ± S.E. A2780/pt (resistant to tocisplatin)
Procedure: as §1, §2

[4] = tested on: A2780 (Ovarian); details: after 72 hours, concentration that inhibits cell growth by 50% compared with non treated cells, read-out: IC50 (nM) ± S.E. A2780 (Ovarian)
Procedure: as §1, §2

[5] = tested on: Widr (colon); details: after 72 hours, concentration that inhibits cell growth by 50% compared with non treated cells, read-out: IC50 (nM) ± S.E. Widr (colon)
Procedure: as §1, §2

[6] = tested on: A2780/top (resistant to topotecan); details: after 72 hours, concentration that inhibits cell growth by 50% compared with non treated cells, read-out: IC50 (nM) ± S.E. A2780/top (resistant to topotecan)
Procedure: as §1, §2

[7] = tested on: A2780/dx (Pgp+); details: after 72 hours, concentration that inhibits cell growth by 50% compared with non treated cells, read-out: IC50 (nM) ± S.E. A2780/dx (Pgp+)
Procedure: as §1, §2

Row | Molecule | IC50 [1] [nM] | IC50 [2] [nM] | IC50 [3] [nM] | IC50 [4] [nM] | IC50 [5] [nM] | IC50 [6] [nM] | IC50 ([1]; Homo sapiens, MCF7R) [nM] | IC50 [7] [nM] | IC50 ([2]; Homo sapiens, MCF7) [nM] | IC50 ([3]; Homo sapiens, A2780) [nM] | IC50 ([4]; Homo sapiens, A2780) [nM] | IC50 ([5]; Homo sapiens, WiDr) [nM] | IC50 ([6]; Homo sapiens, A2780) [nM]
1 | 3,5-Benzenedicarboxylic acid bis-(N-deacetylthiocolchicine)amide [E.g. 3] | 108 ± 14 | 1.5 ± 0.1 | 23 ± 4.6 | 8 ± 5.6 | 48 ± 24 | 5.5 ± 0.1 |  |  |  |  |  |  | 
2 | COc1cc2c(c(OC)c1OC)-c1ccc(SC)c(=O)cc1[C@@H](NC(=O)c1cncc(C(=O)N[C@H]3CCc4cc(OC)c(OC)c(OC)c4-c4ccc(SC)c(=O)cc43)c1)CC2 [E.g. 1, 3,5-Pyridinedicarboxylic acid bis-(N-deacetylthiocolchicine)amide] |  |  |  |  |  |  | 72 ± 4.3 | 806 ± 286 | 0.7 ± 0.1 | 3.7 ± 0.6 | 3 ± 0.4 | 25 ± 26.4 | 6.9 ± 4.2
3 | N-Deacetylthiocolchicine 1,4-phenylenediamine bis-urea [E.g. 4] |  |  | 331 ± 63 | 252 ± 38 | 650 ± 40 | 152 ± 36 |  |  |  |  |  |  | 
4 | trans-1,4-Cyclohexanedicarboxylic acid bis-(N-deacetylthiocolchicine)amide [E.g. 2] | 135 ± 11 | 14 ± 0.9 | 26 ± 1 | 37 ± 5 | 230 ± 166 | 32 ± 24 |  |  |  |  |  |  | 
